Values belong to the molecule of their own block, whether it stands above or below them.
How the values were obtained:
[1] = target: T1, Amine oxidase [flavin-containing] B (Homo sapiens, UniProt P27338); test: Inhibition of human MAO-B using tyramine as substrate by amplex red assay
T1 sequence (P27338 whole entry): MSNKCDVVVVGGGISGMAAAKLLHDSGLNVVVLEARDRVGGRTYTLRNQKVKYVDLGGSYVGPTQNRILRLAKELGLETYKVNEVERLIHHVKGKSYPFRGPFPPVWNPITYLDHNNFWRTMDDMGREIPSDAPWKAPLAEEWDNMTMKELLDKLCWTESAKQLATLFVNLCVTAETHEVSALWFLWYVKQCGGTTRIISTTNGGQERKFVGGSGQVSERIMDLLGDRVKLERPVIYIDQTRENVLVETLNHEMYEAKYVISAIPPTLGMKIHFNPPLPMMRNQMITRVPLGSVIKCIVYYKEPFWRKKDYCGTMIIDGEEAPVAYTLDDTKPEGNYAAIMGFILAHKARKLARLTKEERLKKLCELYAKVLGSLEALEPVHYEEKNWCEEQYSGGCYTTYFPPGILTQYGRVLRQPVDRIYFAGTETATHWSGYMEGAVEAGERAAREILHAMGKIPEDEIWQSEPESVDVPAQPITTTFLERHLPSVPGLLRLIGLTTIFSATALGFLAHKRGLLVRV

[2] = target: T1, Amine oxidase [flavin-containing] B; test: Inhibition of MAO-B (unknown origin) using kynuramine as substrate preincubated for 10 mins followed by substrate addition and measured after 20 mins by fluorescence microplate reader assay
[3] = target: T2, Amine oxidase [flavin-containing] B (Rattus norvegicus, UniProt P19643); test: Inhibition of rat brain mitochondria MAO-B using benzylamine as substrate incubated for 30 mins by microplate reader assay
T2 sequence (P19643 whole entry): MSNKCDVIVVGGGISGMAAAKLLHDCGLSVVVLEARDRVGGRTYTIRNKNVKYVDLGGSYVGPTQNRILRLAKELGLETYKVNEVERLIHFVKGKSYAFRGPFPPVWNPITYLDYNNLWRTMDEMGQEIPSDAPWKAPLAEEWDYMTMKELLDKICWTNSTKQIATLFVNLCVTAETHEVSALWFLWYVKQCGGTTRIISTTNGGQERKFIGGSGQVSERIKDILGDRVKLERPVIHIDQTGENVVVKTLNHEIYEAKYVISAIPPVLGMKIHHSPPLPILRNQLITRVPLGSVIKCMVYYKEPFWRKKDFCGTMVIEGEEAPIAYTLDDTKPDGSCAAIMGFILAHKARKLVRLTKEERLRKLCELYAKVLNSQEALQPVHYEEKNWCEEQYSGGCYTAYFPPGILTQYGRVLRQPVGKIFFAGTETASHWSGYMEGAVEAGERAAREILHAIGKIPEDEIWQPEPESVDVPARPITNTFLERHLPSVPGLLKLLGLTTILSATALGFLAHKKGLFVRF

[4] = target: T1, Amine oxidase [flavin-containing] B; test: Inhibition of recombinant human MAO-B using p-tyramine as substrate preincubated for 15 mins followed by substrate addition and measured after 20 mins by fluorescence assay
[5] = target: T3, Acetylcholinesterase (Homo sapiens, UniProt P22303); test: Inhibition of human AChE using acetylcholine as substrate incubated for 5 mins followed by substrate addition by Ellman's method
[6] = target: T2, Amine oxidase [flavin-containing] B; test: Inhibition of rat brain mitochondria MAO-B using p-tyramine as substrate incubated for 15 mins followed by substrate addition and measured for 15 by microplate fluorescence reader analysis
[7] = target: Acetylcholinesterase (Electrophorus electricus, UniProt O42275); test: Inhibition of electric eel AChE using acetylthiocholine iodide as substrate incubated for 6 mins followed by substrate addition by DTNB reagent based Ellman's method
[8] = target: T1, Amine oxidase [flavin-containing] B; test: Inhibition of recombinant human MAO-B using p-tyramine as substrate incubated for 15 mins followed by substrate addition and measured upto 20 mins by Amplex Red assay
[9] = target: T1, Amine oxidase [flavin-containing] B; test: Inhibition of MAO-B (unknown origin) using tyramine hydrochloride as substrate incubated for 30 mins followed by substrate addition and measured after 5 mins by spectrophotometric assay
[10] = target: T4, Amine oxidase [flavin-containing] A (Homo sapiens, UniProt P21397); test: Inhibition of recombinant human MAO-A using kynuramine as substrate incubated for 10 mins followed by substrate addition and measured for 20 mins by Fluorescence microplate reader assay
T4 sequence (P21397 whole entry): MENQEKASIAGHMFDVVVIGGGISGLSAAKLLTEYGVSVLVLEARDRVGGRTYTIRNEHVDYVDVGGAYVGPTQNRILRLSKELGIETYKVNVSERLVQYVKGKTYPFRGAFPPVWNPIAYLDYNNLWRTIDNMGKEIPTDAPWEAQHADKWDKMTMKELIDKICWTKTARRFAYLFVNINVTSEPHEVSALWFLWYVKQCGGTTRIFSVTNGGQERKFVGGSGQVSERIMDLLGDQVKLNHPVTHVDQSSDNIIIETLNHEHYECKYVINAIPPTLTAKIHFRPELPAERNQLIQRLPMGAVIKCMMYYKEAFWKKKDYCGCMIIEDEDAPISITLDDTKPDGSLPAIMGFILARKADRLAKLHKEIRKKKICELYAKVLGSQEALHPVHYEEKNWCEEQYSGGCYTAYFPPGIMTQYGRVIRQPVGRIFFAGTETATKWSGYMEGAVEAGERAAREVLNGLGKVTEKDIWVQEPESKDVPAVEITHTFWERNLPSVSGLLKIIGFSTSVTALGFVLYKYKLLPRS

[11] = target: T4, Amine oxidase [flavin-containing] A; test: Inhibition of human MAO-A using p-tyramine as substrate preincubated for 15 mins followed by substrate addition and measured after 30 mins by Ample red assay
[12] = target: Cholinesterase (Homo sapiens, UniProt P06276); test: Inhibition of human BuChE using butyrylthiocholine iodide as substrate preincubated for 30 mins followed by substrate addition and measured after 15 mins by Ellman's method
[13] = target: T3, Acetylcholinesterase; test: Inhibition of recombinant human AChE using acetylcholine as substrate preincubated for 15 mins followed by substrate addition and measured after 30 mins by Amplex Red reagent based fluorescence assay
[14] = target: T1, Amine oxidase [flavin-containing] B; test: Inhibition of MAO-B (unknown origin) using as tyramine as substrate by Ampliflu red reagent based fluorometric method
[15] = target: T1, Amine oxidase [flavin-containing] B; test: Inhibition of recombinant human MAO-B using kynuramine as substrate incubated for 20 min by fluorescent spectrophotometric assay
[16] = target: T1, Amine oxidase [flavin-containing] B; test: Inhibition of recombinant human MAO-B using tyramine hydrochloride as substrate preincubated for 30 mins followed by substrate addition and measured after 30 mins by fluorescence assay

T3 sequence (P22303 whole entry): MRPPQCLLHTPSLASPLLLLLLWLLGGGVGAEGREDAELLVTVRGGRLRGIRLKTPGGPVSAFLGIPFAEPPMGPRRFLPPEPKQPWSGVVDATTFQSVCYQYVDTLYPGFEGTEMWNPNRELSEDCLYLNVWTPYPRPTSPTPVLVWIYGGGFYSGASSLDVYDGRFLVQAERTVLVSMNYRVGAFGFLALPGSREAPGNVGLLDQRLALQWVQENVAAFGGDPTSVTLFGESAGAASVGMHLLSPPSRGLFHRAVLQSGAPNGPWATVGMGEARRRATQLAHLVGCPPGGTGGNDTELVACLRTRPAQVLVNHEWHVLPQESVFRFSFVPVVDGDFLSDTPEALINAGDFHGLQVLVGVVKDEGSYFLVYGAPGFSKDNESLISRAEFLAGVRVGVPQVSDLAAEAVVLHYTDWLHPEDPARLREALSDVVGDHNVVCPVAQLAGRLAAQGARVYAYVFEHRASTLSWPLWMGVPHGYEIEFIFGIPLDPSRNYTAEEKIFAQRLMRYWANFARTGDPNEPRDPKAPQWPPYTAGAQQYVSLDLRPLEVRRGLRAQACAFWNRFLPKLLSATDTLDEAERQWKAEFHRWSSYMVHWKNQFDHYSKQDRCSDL
Sequence of Acetylcholinesterase (Electrophorus electricus, UniProt O42275) (O42275 whole entry): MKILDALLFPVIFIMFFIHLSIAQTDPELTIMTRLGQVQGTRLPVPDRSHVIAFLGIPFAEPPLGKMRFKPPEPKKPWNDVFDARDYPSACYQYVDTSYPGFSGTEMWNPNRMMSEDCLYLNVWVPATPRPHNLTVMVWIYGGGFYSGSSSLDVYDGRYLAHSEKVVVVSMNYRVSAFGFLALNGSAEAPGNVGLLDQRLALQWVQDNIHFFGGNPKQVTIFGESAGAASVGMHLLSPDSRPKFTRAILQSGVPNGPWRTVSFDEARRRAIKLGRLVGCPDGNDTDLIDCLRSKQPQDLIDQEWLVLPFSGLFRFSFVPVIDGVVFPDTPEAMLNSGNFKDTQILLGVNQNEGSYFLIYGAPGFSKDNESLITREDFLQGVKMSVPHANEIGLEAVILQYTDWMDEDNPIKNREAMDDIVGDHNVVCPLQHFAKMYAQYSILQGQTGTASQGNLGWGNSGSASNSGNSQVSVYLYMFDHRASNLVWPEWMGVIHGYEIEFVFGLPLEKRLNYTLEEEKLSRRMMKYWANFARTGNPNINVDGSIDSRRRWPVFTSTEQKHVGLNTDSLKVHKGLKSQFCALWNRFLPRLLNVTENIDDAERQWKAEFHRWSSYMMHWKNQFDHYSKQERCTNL
Sequence of Cholinesterase (P06276 whole entry): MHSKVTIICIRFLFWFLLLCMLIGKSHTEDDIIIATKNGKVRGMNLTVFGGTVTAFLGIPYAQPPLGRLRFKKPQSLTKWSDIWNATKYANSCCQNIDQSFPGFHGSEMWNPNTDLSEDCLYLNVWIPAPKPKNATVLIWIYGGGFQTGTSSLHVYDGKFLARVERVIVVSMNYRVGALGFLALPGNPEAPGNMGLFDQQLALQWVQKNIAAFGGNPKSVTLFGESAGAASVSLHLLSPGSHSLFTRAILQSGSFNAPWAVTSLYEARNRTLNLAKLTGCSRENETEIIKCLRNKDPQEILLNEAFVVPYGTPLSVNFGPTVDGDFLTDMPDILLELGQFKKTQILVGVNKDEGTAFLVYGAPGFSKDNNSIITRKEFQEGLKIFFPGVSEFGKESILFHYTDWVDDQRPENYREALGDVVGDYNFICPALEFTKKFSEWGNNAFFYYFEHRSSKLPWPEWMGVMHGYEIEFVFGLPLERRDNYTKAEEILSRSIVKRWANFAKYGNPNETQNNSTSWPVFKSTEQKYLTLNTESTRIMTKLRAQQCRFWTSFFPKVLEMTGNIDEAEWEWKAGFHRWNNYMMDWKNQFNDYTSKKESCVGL

Structure (SMILES): O=C1Nc2ccc(Cl)cc2/C1=N\NC(=O)c1ccc2c(c1)OCO2
- IC50 [3]: 34 nM

Structure (SMILES): Cc1c(C)c2c(c(C)c1O)CCC(C)(C(=O)NCCC1CCN(Cc3ccccc3F)CC1)O2 (configuration not stated)
- IC50 [4]: 4300 nM
- IC50 [5]: 540 nM

Structure (SMILES): Cc1c(Cl)c(=O)oc2cc(OCCCCSC(=S)N3CCCCC3C)ccc12 (configuration not stated)
- IC50 [7]: 6.8 nM
- IC50 [8]: 8.9 nM

Structure (SMILES): COc1cc(-c2cc(=O)c3c(O)cc(O)cc3o2)cc(OC)c1O [TRICIN]
- IC50 [10]: 250 nM

Structure (SMILES): C#CCOc1ccc(-c2cc(-c3ccc(OCCN4CCOCC4)cc3)nc(N)n2)cc1
- IC50 [11]: 18.3 nM
- IC50 [12]: 666 nM
- IC50 [13]: 30.5 nM

Structure (SMILES): Cc1c(Cl)c(=O)oc2cc(OCCCCSC(=S)N3C(C)CCCC3C)ccc12 (configuration not stated)
- IC50 [7]: 114 nM
- IC50 [8]: 101 nM

Structure (SMILES): O=c1c(O)c(-c2ccc(O)c(O)c2)oc2cc(O)cc(O)c12 [QUERCETIN]
- IC50 [10]: 1520 nM

Structure (SMILES): O=c1cc(OCCN2CCOCC2)c2ccccc2o1
- IC50 [15]: 372 nM

Results, then the molecule that gave them:

- IC50 [1]: 12 nM
Structure (SMILES): Cc1ccc(C2=NOC(c3ccc(Cl)c(Cl)c3)C2)cc1 (configuration not stated)

- IC50 [2]: 10600 nM
Structure (SMILES): CCOc1ccc([N+](=O)[O-])c(N/N=C/c2ccco2)n1

- IC50 [6]: 5.9 nM
Structure (SMILES): COc1ccc(/C(C)=N/NC(=O)C2CC(c3ccccc3)=NO2)cc1OC (configuration not stated)

- IC50 [9]: 28 nM
Structure (SMILES): CN1CCN(c2ccc(/C=N/Nc3ccccc3)cc2)CC1

- IC50 [14]: 54 nM
Structure (SMILES): Cc1c(/N=C/c2cccc([N+](=O)[O-])c2)c(=O)n(-c2ccccc2)n1C

- IC50 [14]: 49 nM
Structure (SMILES): Cn1cc(/N=C/c2ccc([N+](=O)[O-])cc2)c(=O)n1-c1ccccc1

- IC50 [6]: 5.1 nM
Structure (SMILES): C/C(=N\NC(=O)C1CC(c2ccccc2)=NO1)c1ccc(C)cc1 (configuration not stated)

- IC50 [1]: 11000 nM
Structure (SMILES): Cc1ccc(C2=NO[C@H](c3ccc(Cl)c(Cl)c3)C2)cc1

- IC50 [16]: 342 nM
Structure (SMILES): CC1CCCCN1c1ccc(/C=N/Nc2ccccc2)cc1 (configuration not stated)
